Source: patent US20220289732A1, “HETEROCYCLIC WDR5 INHIBITORS AS ANTI-CANCER COMPOUNDS” (NOVARTIS AG, priority 2019, published 2022)
Like-named read-outs stand apart in the source and are kept apart here.

How the values were obtained:
MV4-11 cells = assay: MV4-11 6-day cell growth CTG (CellTiter-Glo) assay; assay type: cell-based; conditions: 6 days, read-out: (c) MLL/WDR5 cell proliferation assay//MLL/WDR5 proliferation MV4:11 Qualified AC50
Outline: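 Exponentially growing MV4-11 AML cells (RPMI 1640, 10% FBS) seeded at 300 cells/well with 12-point 1:3 compound dilutions, top final concentration 50 μM. Viability read by CellTiter-Glo luminescence after 6 days at 37° C; % inhibition vs DMSO-only wells fitted to dose-response for IC50.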

WDR5 = WDR5 (Homo sapiens, UniProt P61964); assay: WDR5 HTRF binding assay; conditions: read-out: (a) WDR5 HTRF Pep Val v.1[Inhibitor/IC50]Qualified AC50
Outline: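 6 nM WDR5 and 20 nM biotin-MLL1 WIN peptide (3762-3773) were incubated with compound (12-point, 3-fold dilutions) in pH 7.5 Hepes/NaCl/DTT buffer for 20 min at rt. Streptavidin-APC plus anti-His-Eu were then added for 1 hr, with HTRF read at 665/615. IC50 was fit from control-normalized activity; the counter assay used 15 nM biotin-PEG-His peptide.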

[1] = target: wild type MLL1 four-member complex (MLL1-4C) (Homo sapiens, UniProt P61964); assay: MLL1 LC-MS assay (SAH production); assay type: biochemical; conditions: read-out: (b) MLL LCMS Peptide Val.v.1 Qualified AC50
Outline: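 MLL1-4C (30 nM final) was preincubated 20 min with compound (3-fold dilutions, 8 or 12 points) and SAM in Tris-HCl pH 8.0 buffer. H3K4me0 peptide (histone H3[1-21]-biotin) was then added, giving final 2.5 μM SAM and 10 μM substrate, and reactions ran 120 min at rt. After TFA/d4-SAH quench, SAH was quantified by LC-MS/MS and IC50 fitted from control-normalised activity.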

Row | Compound | AC50 (MV4-11 cells; Homo sapiens, MV4-11, 144 h) | IC50 (WDR5) | AC50 [1] | AC50 (MV4-11 cells)
1 | CCOc1cc([C@H](C)N2CCc3c(cc(CCN(C)CC)cc3-c3cc(C(C)=O)cnc3C)C2=O)ncc1C#N [Example 185, (S)-6-(1-(5-(5-acetyl-2-methylpyridin-3-yl)-7-(2-(ethyl(methyl)amino)ethyl)-1-oxo-3,4-dihydroisoquinolin-2(1H)-yl)ethyl)-4-ethoxynicotinonitrile] | 10 to 1000 nM | < 10 nM | 10 to 1000 nM | –
2 | CCOc1cc([C@H](C)N2CCc3c(cc(CCN(C)CC)cc3-c3cc(C(C)O)cnc3C)C2=O)ncc1C#N (stereo partly drawn) [Example 186, 4-ethoxy-6-((1S)-1-(7-(2-(ethyl(methyl)amino)ethyl)-5-(5-(1-hydroxyethyl)-2-methylpyridin-3-yl)-1-oxo-3,4-dihydroisoquinolin-2(1H)-yl)ethyl)nicotinonitrile] | 10 to 1000 nM | < 10 nM | 10 to 1000 nM | –
3 | CCOc1cc([C@H](C)N2CCc3c(cc(CCN(C)CC)cc3-c3cc(N)cnc3C)C2=O)ncc1C#N [Example 187, (S)-6-(1-(5-(5-amino-2-methylpyridin-3-yl)-7-(2-(ethyl(methyl)amino)ethyl)-1-oxo-3,4-dihydroisoquinolin-2(1H)-yl)ethyl)-4-ethoxynicotinonitrile] | 10 to 1000 nM | < 10 nM | 10 to 1000 nM | –
4 | CCOc1cc([C@H](C)N2CCc3c(cc(CCN(C)CC)cc3-c3cc(OC)ncc3C)C2=O)ncc1C#N [Example 188, (S)-4-ethoxy-6-(1-(7-(2-(ethyl(methyl)amino)ethyl)-5-(2-methoxy-5-methylpyridin-4-yl)-1-oxo-3,4-dihydroisoquinolin-2(1H)-yl)ethyl)nicotinonitrile] | 10 to 1000 nM | < 10 nM | 10 to 1000 nM | –
5 | CCOc1cc(CN2CCc3c(cc(CCN(C)CC)cc3-c3cc(C)nnc3C)C2=O)ncc1C#N [Example 189, 6-((5-(3,6-dimethylpyridazin-4-yl)-7-(2-(ethyl(methyl)amino)ethyl)-1-oxo-3,4-dihydroisoquinolin-2(1H)-yl)methyl)-4-ethoxynicotinonitrile] | 10 to 1000 nM | < 10 nM | 10 to 1000 nM | –
6 | CCOc1cc([C@H](C)N2CCc3c(cc(CCN(C)CC)cc3-c3cn4ccnc4cc3C)C2=O)ncc1C#N [Example 190, (S)-4-ethoxy-6-(1-(7-(2-(ethyl(methyl)amino)ethyl)-5-(7-methylimidazo[1,2-a]pyridin-6-yl)-1-oxo-3,4-dihydroisoquinolin-2(1H)-yl)ethyl)nicotinonitrile] | 10 to 1000 nM | < 10 nM | 10 to 1000 nM | –
7 | CCOc1cc([C@H](C)N2CCc3c(cc(CCN(C)CC)cc3-c3c(OC)ccnc3C)C2=O)ncc1C#N [Example 191, 4-ethoxy-6-((1S)-1-(7-(2-(ethyl(methyl)amino)ethyl)-5-(4-methoxy-2-methylpyridin-3-yl)-1-oxo-3,4-dihydroisoquinolin-2(1H)-yl)ethyl)nicotinonitrile] | 10 to 1000 nM | < 10 nM | 10 to 1000 nM | –
8 | CCOc1cc([C@H](C)N2CCc3c(cc(CCN(C)CC)cc3-c3cc(CC#N)cnc3C)C2=O)ncc1C#N [Example 192, (S)-6-(1-(5-(5-(cyanomethyl)-2-methylpyridin-3-yl)-7-(2-(ethyl(methyl)amino)ethyl)-1-oxo-3,4-dihydroisoquinolin-2(1H)-yl)ethyl)-4-ethoxynicotinonitrile] | 10 to 1000 nM | < 10 nM | 10 to 1000 nM | –
9 | CCOc1cc([C@H](C)N2CCc3c(cc(CCN(C)CC)cc3-c3cn(C)c(=O)cc3CC)C2=O)ncc1C#N [Example 193, (S)-4-ethoxy-6-(1-(7-(2-(ethyl(methyl)amino)ethyl)-5-(4-ethyl-1-methyl-6-oxo-1,6-dihydropyridin-3-yl)-1-oxo-3,4-dihydroisoquinolin-2(1H)-yl)ethyl)nicotinonitrile] | 10 to 1000 nM | < 10 nM | 10 to 1000 nM | –
10 | CCOc1cc([C@H](C)N2CCc3c(cc(CCN(C)CC)cc3-c3ccn(C)c(=O)c3Cl)C2=O)ncc1C#N [Example 194, (S)-6-(1-(5-(3-chloro-1-methyl-2-oxo-1,2-dihydropyridin-4-yl)-7-(2-(ethyl(methyl)amino)ethyl)-1-oxo-3,4-dihydroisoquinolin-2(1H)-yl)ethyl)-4-ethoxynicotinonitrile] | 10 to 1000 nM | < 10 nM | 10 to 1000 nM | –
11 | CCOc1cc([C@H](C)N2CCc3c(cc(CCN(C)CC)cc3-c3ccn(C)c(=O)c3C(F)(F)F)C2=O)ncc1C#N [Example 195, (S)-4-ethoxy-6-(1-(7-(2-(ethyl(methyl)amino)ethyl)-5-(1-methyl-2-oxo-3-(trifluoromethyl)-1,2-dihydropyridin-4-yl)-1-oxo-3,4-dihydroisoquinolin-2(1H)-yl)ethyl)nicotinonitrile] | 10 to 1000 nM | 10 to 1000 nM | 10 to 1000 nM | –
12 | CCOc1cc(CN2CCc3c(cc(CCN(C)CC)cc3-c3cn(C)c(=O)cc3C(F)(F)F)C2=O)ncc1C#N [Example 196, 4-ethoxy-6-((7-(2-(ethyl(methyl)amino)ethyl)-5-(1-methyl-6-oxo-4-(trifluoromethyl)-1,6-dihydropyridin-3-yl)-1-oxo-3,4-dihydroisoquinolin-2(1H)-yl)methyl)nicotinonitrile] | 10 to 1000 nM | 10 to 1000 nM | 10 to 1000 nM | –
13 | CCOc1cc(C(C)N2CCc3c(cc(CCN(C)CC)cc3-c3cc(Cl)cnc3C)C2=O)ncc1C#N (stereo not drawn) [Example 197, 6-(1-(5-(5-chloro-2-methylpyridin-3-yl)-7-(2-(ethyl(methyl)amino)ethyl)-1-oxo-3,4-dihydroisoquinolin-2(1H)-yl)ethyl)-4-ethoxynicotinonitrile] | 10 to 1000 nM | 10 to 1000 nM | 10 to 1000 nM | –
14 | CCOc1cc([C@H](C)N2CCc3c(cc(CCN(C)CC)cc3-c3ccc(N)nc3C(F)(F)F)C2=O)ncc1C#N [Example 198, (S)-6-(1-(5-(6-amino-2-(trifluoromethyl)pyridin-3-yl)-7-(2-(ethyl(methyl)amino)ethyl)-1-oxo-3,4-dihydroisoquinolin-2(1H)-yl)ethyl)-4-ethoxynicotinonitrile] | < 10 nM | 10 to 1000 nM | 10 to 1000 nM | –
15 | CCOc1cc([C@@H](C)N2CCc3c(cc(CCN(C)CC)cc3-c3ccc(N)nc3C(F)(F)F)C2=O)ncc1C#N [Example 199, (R)-6-(1-(5-(6-amino-2-(trifluoromethyl)pyridin-3-yl)-7-(2-(ethyl(methyl)amino)ethyl)-1-oxo-3,4-dihydroisoquinolin-2(1H)-yl)ethyl)-4-ethoxynicotinonitrile] | 10 to 1000 nM | 10 to 1000 nM | 10 to 1000 nM | –
16 | CCOc1cc(C(C)N2CCc3c(cc(CCN(C)CC)cc3-c3ccc(N)nc3C(F)F)C2=O)ncc1C#N (stereo not drawn) [Example 200, 6-(1-(5-(6-amino-2-(difluoromethyl)pyridin-3-yl)-7-(2-(ethyl(methyl)amino)ethyl)-1-oxo-3,4-dihydroisoquinolin-2(1H)-yl)ethyl)-4-ethoxynicotinonitrile] | 10 to 1000 nM | 10 to 1000 nM | 10 to 1000 nM | –
17 | CCOc1cc(CN2CCc3c(cc(CCN(C)CC)cc3-c3cc(N)cnc3C)C2=O)ncc1C#N [Example 201, 6-((5-(5-amino-2-methylpyridin-3-yl)-7-(2-(ethyl(methyl)amino)ethyl)-1-oxo-3,4-dihydroisoquinolin-2(1H)-yl)methyl)-4-ethoxynicotinonitrile] | 10 to 1000 nM | 10 to 1000 nM | 10 to 1000 nM | –
18 | CCOc1cc([C@H](C)N2CCc3c(cc(CCN(C)CC)cc3-c3cc(N)ncc3C(F)(F)F)C2=O)ncc1C#N [Example 202, (S)-6-(1-(5-(2-amino-5-(trifluoromethyl)pyridin-4-yl)-7-(2-(ethyl(methyl)amino)ethyl)-1-oxo-3,4-dihydroisoquinolin-2(1H)-yl)ethyl)-4-ethoxynicotinonitrile] | 10 to 1000 nM | 10 to 1000 nM | 10 to 1000 nM | –
19 | CCOc1cc(C(C)N2CCc3c(cc(CCN(C)CC)cc3-c3cc(Cl)nnc3C)C2=O)ncc1C#N (stereo not drawn) [Example 203, 6-(1-(5-(6-chloro-3-methylpyridazin-4-yI)-7-(2-(ethyl(methyl)amino)ethyl)-1-oxo-3,4-dihydroisoquinolin-2(1H)-yl)ethyl)-4-ethoxynicotinonitrile] | 10 to 1000 nM | 10 to 1000 nM | 10 to 1000 nM | –
20 | CCOc1cc([C@H](C)N2CCc3c(cc(CCN(C)CC)cc3-c3cn(C)c(=O)cc3C(F)(F)F)C2=O)ncc1F [Example 204, (S)-2-(1-(4-ethoxy-5-fluompyridin-2-yl)ethyl)-7-(2-(ethyl(methyl)amino)ethyl)-5-(1-methyl-6-oxo-4-(trifluoromethyl)-1,6-dihydropyridin-3-yl)-3,4-dihydroisoquinolin-1(2H)-one] | – | 10 to 1000 nM | 10 to 1000 nM | 10 to 1000 nM
21 | CCOc1cc(C(C)N2CCc3c(cc(CCN(C)CC)cc3-c3cc(C)nn3C)C2=O)ncc1C#N (stereo not drawn) [Example 205, 6-(1-(5-(1,3-dimethyl-1H-pyrazol-5-yl)-7-(2-(ethyl(methyl)amino)ethyl)-1-oxo-3,4-dihydroisoquinolin-2(1H)-yl)ethyl)-4-ethoxynicotinonitrile] | 10 to 1000 nM | 10 to 1000 nM | 10 to 1000 nM | –
